Experimental data from PMC10061639 (ACS Omega, 2023).
≈ marks a conversion by molar mass, not a printed value. Each block holds one molecule with its values, some of them ahead of it.

How the values were obtained:
[1] = Hansen solubility parameters estimated with HSPiP program; settings: HSP parameters of ENE5 based on composition
[2] = cited from earlier work
[3] = Experimental saturated solubility of ENO in excipients; format: physicochemical; settings: thermodynamic from solid
[4] = cited from earlier work; remark: listed apart in the source

δd, share of the component in ENE5 based on composition [1]: 8.1
δh, share of the component in ENE5 based on composition [1]: 3.33
δp, share of the component in ENE5 based on composition [1]: 4.46
Compound: CN1CCCC1=O [NMP, N-methyl-2-pyrrolidone]

solubility at 72 h ([3]; C90, 40 °C): 2800 µg/mL (≈ 8.74 mM)
solubility at 72 h ([3]; Miglyol 812N, 40 °C, oil or lipid): 5400 µg/mL (≈ 16.9 mM)
solubility at 72 h ([3]; NMP (N-methyl-2-pyrrolidone), 40 °C): 6700 µg/mL (≈ 20.9 mM)
solubility at 72 h ([3]; Tween 80, 40 °C): 1500 µg/mL (≈ 4.68 mM)
Compound: CCn1cc(C(=O)O)c(=O)c2cc(F)c(N3CCNCC3)nc21 [ENO, Enoxacin]
aqueous solubility ([2]; an experimental value): 290 µg/mL (≈ 0.905 mM)
pKa [2]: 5.5

Compound: CCOCCOCCO [Transcutol-HP]
HLB [4]: 14.5

δd, share of the component in ENE5 based on composition [1]: 2.52
δh, share of the component in ENE5 based on composition [1]: 1.425
δp, share of the component in ENE5 based on composition [1]: 0.975
Compound: CCCCCCCC/C=C\CCCCCCCC(=O)OCCOCC(OCCO)C1OCC(OCCO)C1OCCO (stereo not shown) [Tween 80]
